In US11524938B2, “Aromatic sulfonamide derivatives” (Bayer Pharma Aktiengesellschaft, priority 2016, dated 2022):
Values joined by “and” are separate entries in the source; they are usually repeats but may differ in a detail not shown here. Identical values can stand only once.

Biological target: T1, human P2X4 (Homo sapiens, UniProt Q99571)
T1 sequence (Q99571 1-388): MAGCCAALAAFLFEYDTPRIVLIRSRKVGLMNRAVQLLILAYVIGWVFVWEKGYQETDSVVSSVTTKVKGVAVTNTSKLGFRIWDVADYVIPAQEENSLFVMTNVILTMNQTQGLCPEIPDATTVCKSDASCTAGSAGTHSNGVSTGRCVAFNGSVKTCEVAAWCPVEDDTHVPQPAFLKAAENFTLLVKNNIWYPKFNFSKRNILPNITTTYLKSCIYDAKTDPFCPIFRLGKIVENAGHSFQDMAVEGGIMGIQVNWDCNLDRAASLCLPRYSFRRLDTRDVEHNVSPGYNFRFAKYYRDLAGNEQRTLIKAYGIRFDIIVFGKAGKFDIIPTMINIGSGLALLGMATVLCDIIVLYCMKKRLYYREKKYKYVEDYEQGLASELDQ
Test: Human P2X4 HEK Cell FLIPR Assay
Format: cell-based
Settings: agonist Bz-ATP at EC80; for Emax: HEK293, HEK293 cells, percentage of maximal inhibition, read-out: Human P2X4 HEK Cells (FLIPR Assay) avg Efficacy [%]; for IC50: HEK293 cells, individual values listed where some fall outside detection range
In short: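 HEK293 cells stably expressing human P2X4, Fluo8-AM loaded 30 min at 37° C, then compound 30 min at room temperature (0.5% DMSO, pH 7.4 buffer with 1.8 mM CaCl2). Bz-ATP at its daily-determined EC80 added; calcium fluorescence read over 120 sec; IC50 from peak RFU normalized to agonist control, triplicates.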

Row | Emax | IC50 | Structure (SMILES)
1 | 81% | 112 nM | COc1cnn(-c2ccc(NC(=O)Cc3ccccc3Cl)cc2S(N)(=O)=O)c1 [Example 31, 2-(2-Chlorophenyl)-N-[4-(4-methoxy-1H-pyrazol-1-yl)-3-sulfamoylphenyl]acetamide]
2 | 97% | 378 nM | NS(=O)(=O)c1cc(NC(=O)Cc2ccccc2Cl)ccc1-n1cnc2ncccc21 [Example 44, 2-(2-Chlorophenyl)-N-[4-(1H-imidazo[4,5-b]pyridin-1-yl)-3-sulfamoylphenyl]-acetamide]
3 | 98% | 29 nM | N#Cc1cnn(-c2ccc(NC(=O)Cc3cccc(C(F)(F)F)c3Cl)cc2S(N)(=O)=O)c1 [Example 206, 2-[2-Chloro-3-(trifluoromethyl)phenyl]-N-[4-(4-cyano-1H-pyrazol-1-yl)-3-sulfamoylphenyl]acetamide]
4 | 93% | 323 nM | NS(=O)(=O)c1cc(NC(=O)Cc2ccc(C(F)(F)F)cc2Cl)ccc1-c1ccc(Cl)nc1 [Example 474, N-[4-(6-Chloropyridin-3-yl)-3-sulfamoylphenyl]-2-[2-chloro-4-(trifluoromethyl)phenyl]acetamide]
5 | 80% | 132 nM | NS(=O)(=O)c1cc(NC(=O)Cc2cc(F)c(F)cc2Cl)ccc1-n1cc(Br)cn1 [Example 71, N-[4-(4-Bromo-1H-pyrazol-1-yl)-3-sulfamoylphenyl]-2-(2-chloro-4,5-difluorophenyl)-acetamide]
6 | 74% | 70 nM | CC(C)Oc1cnn(-c2ccc(NC(=O)Cc3ccccc3Cl)cc2S(N)(=O)=O)c1 [Example 27, 2-(2-Chlorophenyl)-N-[4-(4-isopropoxy-1H-pyrazol-1-yl)-3-sulfamoylphenyl]-acetamide]
7 | 95% | 38 nM | N#Cc1cnn(-c2ccc(NC(=O)Cc3c(Cl)cccc3C(F)(F)F)cc2S(N)(=O)=O)c1 [Example 215, 2-[2-Chloro-6-(trifluoromethyl)phenyl]-N-[4-(4-cyano-1H-pyrazol-1-yl)-3-sulfamoylphenyl]acetamide]
8 | 102% | 44 nM | NS(=O)(=O)c1cc(NC(=O)Cc2ccccc2F)ccc1-c1cnn(C2CC2)c1 [Example 344, N-[4-(1-Cyclopropyl-1H-pyrazol-4-yl)-3-sulfamoylphenyl]-2-(2-fluorophenyl)-acetamide]
9 | 87% | 222 nM | CSc1cnn(-c2ccc(NC(=O)Cc3ccccc3Cl)cc2S(N)(=O)=O)c1 [Example 30, 2-(2-Chlorophenyl)-N-{4-[4-(methylsulfanyl)-1H-pyrazol-1-yl]-3-sulfamoylphenyl}-acetamide]
10 | 85% | 445 nM | Cc1ccc(CC(=O)Nc2ccc(-n3cc(C(F)(F)F)nn3)c(S(N)(=O)=O)c2)cc1 [Example 409, 2-(4-Methylphenyl)-N-{3-sulfamoyl-4-[4-(trifluoromethyl)-1H-1,2,3-triazol-1-yl]phenyl}acetamide]
11 | 84% | 352 nM | COCCc1cnn(-c2ccc(NC(=O)Cc3ccccc3F)cc2S(N)(=O)=O)c1 [Example 265, 2-(2-Fluorophenyl)-N-{4-[4-(2-methoxyethyl)-1H-pyrazol-1-yl]-3-sulfamoyl-phenyl}acetamide]
12 | 90% | 351 nM | NS(=O)(=O)c1cc(NC(=O)Cc2ccncc2Cl)ccc1-c1cnn(C(F)F)c1 [Example 230, 2-(3-Chloropyridin-4-yl)-N-{4-[1-(difluoromethyl)-1H-pyrazol-4-yl]-3-sulfamoyl-phenyl}acetamide]
13 | 94% | 9 nM | NS(=O)(=O)c1cc(NC(=O)Cc2ccccc2Cl)ccc1-c1cncc(Cl)c1 [Example 325, 2-(2-Chlorophenyl)-N-[4-(5-chloropyridin-3-yl)-3-sulfamoylphenyl]acetamide]
14 | 51% | 8.3 µM and 17.8 µM and > 25 µM (2×) | NS(=O)(=O)c1cc(NC(=O)Cc2ccc(Cl)cc2Cl)ccc1-n1ncc(C(F)(F)F)n1 [Example 416, 2-(2,4-Dichlorophenyl)-N-{3-sulfamoyl-4-[4-(trifluoromethyl)-2H-1,2,3-triazol-2-yl]phenyl}acetamide]
15 | 89% | 149 nM | NS(=O)(=O)c1cc(NC(=O)Cc2ccccc2F)ccc1-c1nnc(C(F)F)o1 [Example 523, N-{4-[5-(Difluoromethyl)-1,3,4-oxadiazol-2-yl]-3-sulfamoylphenyl}-2-(2-fluorophenyl)acetamide]
16 | 88% | 87 nM | NS(=O)(=O)c1cc(NC(=O)Cc2ccccc2Cl)ccc1-n1cc(NC(=O)C2CC2)cn1 [Example 400, N-[1-(4-{[(2-Chlorophenyl)acetyl]amino}-2-sulfamoylphenyl)-1H-pyrazol-4-yl]cyclopropanecarboxamide]

Row | Emax | IC50 | Structure (SMILES)
17 | 62% | 355 nM | NS(=O)(=O)c1cc(NC(=O)Cc2cccc(F)c2)ccc1-n1cc(Br)cn1 [Example 65, N-[4-(4-Bromo-1H-pyrazol-1-yl)-3-sulfamoylphenyl]-2-(3-fluorophenyl)acetamide]
18 | 76% | 682 nM | CC(C)(O)c1cnn(-c2ccc(NC(=O)Cc3ccccc3Cl)cc2S(N)(=O)=O)c1 [Example 238, 2-(2-Chlorophenyl)-N-{4-[4-(2-hydroxypropan-2-yl)-1H-pyrazol-1-yl]-3-sulfamoyl-phenyl}acetamide]
19 | 75% | 70 nM | NS(=O)(=O)c1cc(NC(=O)Cc2cc(F)ccc2Cl)ccc1-n1cc(F)cn1 [Example 168, 2-(2-Chloro-5-fluorophenyl)-N-[4-(4-fluoro-1H-pyrazol-1-yl)-3-sulfamoylphenyl]-acetamide]
20 | 68% | 196 nM | NS(=O)(=O)c1cc(NC(=O)Cc2ccccc2F)cnc1-n1cc(Cl)cn1 [Example 388, N-[6-(4-Chloro-1H-pyrazol-1-yl)-5-sulfamoylpyridin-3-yl]-2-(2-fluorophenyl)acetamide]
21 | 66% | 364 nM | NS(=O)(=O)c1cc(NC(=O)Cc2cc(F)cc(F)c2)ccc1-n1cc(F)cn1 [Example 146, 2-(3,5-Difluorophenyl)-N-[4-(4-fluoro-1H-pyrazol-1-yl)-3-sulfamoylphenyl]acetamide]
22 | 75% | 128 nM | NS(=O)(=O)c1cc(NC(=O)Cc2ccc(F)cc2Cl)ccc1-n1cc(Br)cn1 [Example 68, N-[4-(4-Bromo-1H-pyrazol-1-yl)-3-sulfamoylphenyl]-2-(2-chloro-4-fluorophenyl)-acetamide]
23 | 84% | 49 nM | NS(=O)(=O)c1cc(NC(=O)Cc2ccccc2Br)ccc1-n1cc(Cl)cn1 [Example 74, 2-(2-Bromophenyl)-N-[4-(4-chloro-1H-pyrazol-1-yl)-3-sulfamoylphenyl]acetamide]
24 | 73% | 4650 nM | NS(=O)(=O)c1cc(NC(=O)Cc2ccncc2Cl)ccc1-n1cnc(C(F)(F)F)n1 [Example 59, 2-(3-Chloropyridin-4-yl)-N-{3-sulfamoyl-4-[3-(trifluoromethyl)-1H-1,2,4-triazol-1-yl]phenyl}acetamide]
25 | 88% | 474 nM | NS(=O)(=O)c1cc(NC(=O)Cc2cc(Br)ccc2Cl)ccc1-n1cc(C(F)(F)F)cn1 [Example 245, 2-(5-Bromo-2-chlorophenyl)-N-{3-sulfamoyl-4-[4-(trifluoromethyl)-1H-pyrazol-1-yl]phenyl}acetamide]
26 | 58% | 540 nM | N#Cc1cnn(-c2ccc(NC(=O)Cc3cc(F)cc(F)c3)cc2S(N)(=O)=O)c1 [Example 190, N-[4-(4-Cyano-1H-pyrazol-1-yl)-3-sulfamoylphenyl]-2-(3,5-difluorophenyl)acetamide]
27 | 80% | 433 nM | NS(=O)(=O)c1cc(NC(=O)Cc2ccc(O)cc2)ccc1-n1cc(F)cn1 [Example 150, N-[4-(4-Fluoro-1H-pyrazol-1-yl)-3-sulfamoylphenyl]-2-(4-hydroxyphenyl)acetamide]
28 | 89% | 113 nM | NS(=O)(=O)c1cc(NC(=O)Cc2ccccc2Cl)ccc1-c1cnn2cccnc12 [Example 365, 2-(2-Chlorophenyl)-N-[4-(pyrazolo[1,5-a]pyrimidin-3-yl)-3-sulfamoylphenyl]acetamide]
29 | 91% | 32 nM | NS(=O)(=O)c1cc(NC(=O)Cc2ccccc2F)ccc1-c1cccnc1 [Example 338, 2-(2-Fluorophenyl)-N-[4-(pyridin-3-yl)-3-sulfamoylphenyl]acetamide]
30 | 34% | > 25000 nM | NS(=O)(=O)c1cc(NC(=O)Cc2ccccc2Cl)ccc1-n1ccc(C(F)F)n1 [Example 12, 2-(2-Chlorophenyl)-N-{4-[3-(difluoromethyl)-1H-pyrazol-1-yl]-3-sulfamoyl-phenyl}acetamide]
31 | 105% | 125 nM | NS(=O)(=O)c1cc(NC(=O)Cc2ccccc2F)ccc1-n1nnc2c(F)cc(F)cc21 [Example 480, N-[4-(4,6-Difluoro-1H-benzotriazol-1-yl)-3-sulfamoylphenyl]-2-(2-fluorophenyl)acetamide]
32 | 93% | 317 nM | CCOc1ncc(-c2ccc(NC(=O)Cc3ccccc3Cl)cc2S(N)(=O)=O)cn1 [Example 309, 2-(2-Chlorophenyl)-N-[4-(2-ethoxypyrimidin-5-yl)-3-sulfamoylphenyl]acetamide]
